Values quoted from earlier work, collected in publication PMC10855781 (International Journal of Molecular Sciences, 2024).
Entries after “also recorded” stand apart in the source; their conditions may differ. Like-named read-outs stand apart in the source and are kept apart here.

Legend:
[1] = test system: Human cardiac myocytes (HCM); parameters: key: 0: no cardiotoxicity; +: weak; ++: moderate; +++: strong cardiotoxicity; conditions: long-term (0–72 h) cytotoxic effect, impedimetric; ref [75]
Excerpt: Table 2 Comparative study of cytotoxic effects and cardiotoxicity elicited by selected GnRH-based anthracycline conjugates. | column: Cardiotoxicity || The main drug-related toxic side effect of anthracyclines is cardiotoxicity, leading to cardiomyopathy and heart failure. Comparative experiments to determine the cardiotoxicity of peptide–anthracycline conjugates with different linkages might be informative for the other conjugates with different types of drugs as well. For this purpose, human cardiomyocytes (HCM) and human umbilical vein endothelial cells (HUVEC) were used as models. The long-term (0–72 h) cytotoxic effect of sixteen GnRH-based conjugates containing Dox and Dau was determined by real-time impedimetric sensing using th ...

[2] = test system: human breast adenocarcinoma (MCF-7); conditions: ref [75]
Excerpt: Table 2 Comparative study of cytotoxic effects and cardiotoxicity elicited by selected GnRH-based anthracycline conjugates. | column: IC50 Values (μM)

[3] = test system: human umbilical vein endothelial cells (HUVEC); parameters: key: 0: no cardiotoxicity; +: weak; ++: moderate; +++: strong cardiotoxicity; conditions: long-term (0–72 h) cytotoxic effect, impedimetric; ref [75]
Excerpt: Table 2 Comparative study of cytotoxic effects and cardiotoxicity elicited by selected GnRH-based anthracycline conjugates. | column: Cardiotoxicity

[4] = test system: human colorectal adenocarcinoma (HT-29); conditions: Table 2; ref [75]
Excerpt: Table 2 Comparative study of cytotoxic effects and cardiotoxicity elicited by selected GnRH-based anthracycline conjugates. || Table 3 In vivo tumor growth inhibition of a few relevant Dau-GnRH-III conjugates. | column: Cytostatic Effect (IC50: μM) on HT-29 cells

[5] = lysosomal homogenate; Dau=Aoa-Gly-OH, Dau=Aoa-Gly-Phe-OH, H-Lys(Dau=Aoa)-OH; ref [110]
[6] = test system: normal human dermal fibroblast (NHDF); conditions: 10 μM, 72 h treatment, ref [110]
Protocol: (§1) We assessed a modified version of this peptide as a homing device, where Cys was replaced by Ser because the thiol group is not necessary to introduce an oxime linkage. […] Using this conjugate at 10 μM concentration, the cell viability of the PANC-1 cells was 0.1% after a 72 h treatment. In contrast, the cell viability of normal human dermal fibroblast (NHDF), a model of healthy cells, was roughly 75%, showing a significa ...

[7] = test system: PANC-1 (human pancreas adenocarcinoma); conditions: 10 μM, 72 h treatment, ref [110]
Protocol: as §1

PANC-1 tumor = conditions: ref [110]; for tumor growth inhibition by tumor volume: eighteen treatments, day 74
Protocol: The in vivo tumor growth inhibitory effect of the conjugate and free Dau was investigated on s.c.-developed PANC-1 tumor-bearing SCID female mice. The free drug was applied once a week at a maximum tolerated dose of 1 mg/kg body weight (three treatments), while the conjugate was administered, on average, three times per a week either at a 2 mg/kg or 10 mg/kg dose, calculated as per the Dau content (eighteen treatments altogether). The first treatment was given on day 10 after tumor inoculation. After the third treatment with free Dau, the animals lost 20% of their weight; therefore, the mice i ...

lysosomal homogenate = conditions: up to 72 h
[8] = rat liver lysosomal homogenate; conditions: up to 6 h
PC3 cancer cell lines = conditions: PC3, 1.5 h incubation; concentration for internalization of 50% of the conjugate in living cells; ref [84]; read-out: cellular uptake (UC50)
Excerpt: (§2) Table 4 In vitro and in vivo activity of bombesin analog–daunomycin conjugates on PC3 cells. | column: L1: Dau=Aoa-LRRY- […]le-NH2; L5: Dau=Aoa-LRRY- fQWAVGHStaL-NH2; L6: Dau=Aoa-LRRY- fQWAVβAlaHStaNle-NH2

PC3 cells = conditions: ref [84], read-out: cytostatic effect (IC50)
Excerpt: as §2

[9] = test system: PC-3 human prostatic adenocarcinoma; parameters: method as in PMID 36834815; conditions: s.c. PC-3, ref [84]
Excerpt: This 14-mer peptide (Glp-[…]NH2), first discovered in the skin of the frog Bombina bombina, is associated with the gastrin-releasing peptide (GRP) as a mammalian counterpart. The bombesin receptor family comprises neuromedin receptor B (NMB-R, or BB1), gastrin-releasing peptide receptor (GRP-R, or BB2) and bombesin receptor subtype 3 (BRS-3, or BB3). Among them, GRP-R has been the most investig ...

HT-29 tumor = conditions: mouse, in vivo
Protocol: In our group, we synthesized conjugates based on a heptapeptide (VHLGYAT) selected by Zhang et al. and tested them on HT-29 human colon adenocarcinoma. Since sequence modification may result in different oxime-linked Dau-amino acid fragments, a cathepsin B- labile spacer was incorporated to the N-terminal of the homing peptide. From the parent compound (Dau=Aoa-LRRY-VHLGYAT-NH2), the potential positions that can be substituted were selected using Ala-scan. […] Statistical analysis was performed by Mann-Whitney test. *, ** and *** mean significant at p < 0.05, p < 0.01 and p < 0.001, respectively. Adapted with permission from ref. [18]. 2019, Elsevier. TEXT PRINTED IN THE PICTURE: (a) Dau: Tumour weight (g): 16% | (a) Parent: Tumour weight (g): 35% | (a) G/F exchange: Tumour weight (g): 11% | (b) Dau: Liver weight (g): 72% | (b) Parent: Liver weight (g): 101% | (b) G/F exchange: Liver weight (g): 90% | (c) Dau: Prol ...

[10] = test system: different cancer cell lines, e.g. HT-29; conditions: ref [18]
Excerpt: In our group, we synthesized conjugates based on a heptapeptide (VHLGYAT) selected by Zhang et al. and tested them on HT-29 human colon adenocarcinoma. Since sequence modification may result in different oxime-linked Dau-amino acid fragments, a cathepsin B- labile spacer was incorporated to the N-terminal of the homing peptide. From the parent compound (Dau=Aoa-LRRY-VHLGYAT-NH2), the potential positions that can be substituted were selected using Ala-scan.

Question: With `COc1cccc2c1C(=O)c1c(O)c3c(c(O)c1C2=O)C[C@@](O)(C(=O)CO)C[C@@H]3O[C@H]1C[C@H](N)[C@H](O)[C@H](C)O1` [doxorubicin (Dox), doxorubicin] as the compound, how does the “Cardiotoxicity, HCM” value [1] read?
Answer: +++

Question: And the IC50 [2]?
Answer: 0.1 µM

Question: And the “Cardiotoxicity, HUVEC” value [3]?
Answer: +++

Question: And the IC50 [4]?
Answer: 0.1 µM

Question: For “Dau=Aoa-GFLG-K(Dau=Aoa)SKAAKN-OH [listing 1 of 2 here]”, which “time of release of three drug-containing metabolites” value [5] is on record?
Answer: ≤ 72 h

Question: And the cell viability [6]?
Answer: roughly 75%

Question: What about the cell viability [7] of the same compound?
Answer: 0.1%

Question: What about the “tumor growth inhibition by tumor volume” value (PANC-1 tumor; 2 mg/kg (Dau content)) of the same compound?
Answer: 14%

Question: What about the tumor weight reduction (PANC-1 tumor; 2 mg/kg (Dau content)) of the same compound?
Answer: 27.3%

Question: And the “tumor growth inhibition by tumor volume” value (PANC-1 tumor; 10 mg/kg (Dau content))?
Answer: 32.2%

Question: And the tumor weight reduction (PANC-1 tumor; 10 mg/kg (Dau content))?
Answer: 30.4%

Question: And the toxic side effects (PANC-1 tumor; 2 or 10 mg/kg Dau content)?
Answer: No toxic side effects

Question: What about the “highest tumor inhibition rate” value (PANC-1 tumor; day 67, after 16 treatments, dose not stated) of the same compound?
Answer: 43%

Question: For “Dau=Aoa-GFLG-K(Dau=Aoa)SKAAKN-OH [listing 2 of 2 here]”, which fragment found (lysosomal homogenate) is on record?
Answer: Dau=Aoa-Gly-Phe-OH, within 72 h; also recorded: H-Lys(Dau=Aoa)-OH, within 72 h

Question: With Dau=Aoa-LRRY- QWAVGHLNle-NH2 as the compound, how does the fragment found [8] read?
Answer: Dau=Aoa-Leu-OH, less than 30 min

Question: Which EC50 (PC3 cancer cell lines) does the source give for Dau=Aoa-LRRY- QWAVGHLNle-NH2 [L1] here?
Answer: 22.9 µM

Question: What about the IC50 (PC3 cells) of the same compound?
Answer: 4.38 ± 0.33 µM

Question: With Dau=Aoa-LRRY- fQWAVGHStaL-NH2 as the compound, how does the fragment found [8] read?
Answer: Dau=Aoa-Leu-OH, less than 30 min

Question: For Dau=Aoa-LRRY- fQWAVβAlaHStaNle-NH2, which fragment found [8] is on record?
Answer: Dau=Aoa-Leu-OH, less than 30 min

Question: With Dau=Aoa-LRRY- fQWAVβAlaHStaNle-NH2 [L6] as the compound, how does the EC50 (PC3 cancer cell lines) read?
Answer: 16.1 µM

Question: And the IC50 (PC3 cells)?
Answer: 18 ± 3.01 µM

Question: What about the tumor volume inhibition ([9]; i.p. 10 mg Dau-content/kg every fifth day from day 9, five treatments, day 33, Dau 1 mg/kg, terminated day 26) of the same compound?
Answer: 31.4%

Question: And the tumor weight inhibition ([9]; i.p. 10 mg Dau-content/kg, five treatments, day 33)?
Answer: 33.1%

Question: What about the “tumor DT enhancement” value ([9]; tumor doubling time, 10 mg Dau-content/kg) of the same compound?
Answer: 11.5%

Question: For Dau=Aoa-LRRY-VHLFYAT-NH2, which “Liver weight, percent label in Figure 5b” value (HT-29 tumor) is on record?
Answer: 90%

Question: And the “in vitro cytostasis, times higher activity than the parent conjugate” value ([10]; different cancer cell lines)?
Answer: 2–5 times

Question: What about the “in vitro cytostasis, times higher activity than the parent conjugate” value ([10]; on HT-29) of the same compound?
Answer: up to 2.6 times

Question: With N-O-CH2-CO-TFFYGGSRGKRNNFKTEEY-CONH2 as the compound, how does the fragment found (lysosomal homogenate) read?
Answer: Dau=Aoa-Thr-OH, major, within 1 h

Question: For NH2-TFFYGGSRGKRNNFKTEEY-CONH2, which fragment found (lysosomal homogenate) is on record?
Answer: H-Lys(Dau=Aoa)-OH, major, within 1 h
